Measured values reported in ChEMBL document CHEMBL1201862, “PubChem BioAssay data set” (2004).
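1) Cells in 96-well plates. 2) Compound, 48 h, 5 concentrations. 3) Linear interpolation between surrounding doses. 4) Unreached endpoint = highest concentration. Here, GI50 denotes the concentration required for 50% inhibition of growth.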 Calls of active or inactive are those of the source. Cut-off read from the data, not from the text of the source: active = GI50 up to about 1.1 µM and inactive = higher. Where a SMILES comes first, the peptide text is derived from it. Bridges are numbered along the chain shown (N, C = ends). [ ]: non-standard residue; d: D form. The star is where a group is joined. ξ: configuration not given here. X28 = O=C(/C=C/C=C/C=C/C=C/C=C/C(=O)*)NC1=C(O)CCC1=O; NMeA = CN[C@@H](C)C(=O)O; ξF = NC(Cc1ccccc1)C(=O)O; ξA = CC(N)C(=O)O

Columns and labels:
Assay in all cases: DTP human tumour cell line panel, 48 h
MDA-N = tested on: MDA-N
DLD-1 = tested on: DLD-1
DMS-114 = tested on: DMS-114
M19-MEL = tested on: M19-MEL
SNB-78 = tested on: SNB-78
RXF 631 = tested on: RXF 631
KM-20L2 = tested on: KM-20L2
LXFL 529 = tested on: LXFL 529
HOP-18 = tested on: HOP-18

**Q.** Cc1cc2nc3c(C#N)c(-c4ccccc4)cc(Nc4ccc(Cl)cc4)n3c2cc1C was tested. Which GI50 (MDA-N) did it give?
**A.** Its GI50 is > 100 µM (inactive).

**Q.** CC(C)C1COC(c2ccc3ccccc3c2-c2c(O[Si](C)(C)C(C)(C)C)ccc3ccccc23)=N1 (centres undefined) was tested. Which GI50 (DLD-1) did it give?
**A.** The GI50 was 17.1 µM (inactive).

**Q.** And the GI50 (DMS-114)?
**A.** The GI50 was 15.6 µM (inactive).

**Q.** What about the GI50 (M19-MEL) of the same compound?
**A.** The GI50 was 18.8 µM (inactive).

**Q.** What about the GI50 (SNB-78) of the same compound?
**A.** The GI50 was 6.59 µM (inactive).

**Q.** And the GI50 (RXF 631)?
**A.** Its GI50 is 14.9 µM (inactive).

**Q.** And the GI50 (KM-20L2)?
**A.** The GI50 was 19.5 µM (inactive).

**Q.** What about the GI50 (LXFL 529) of the same compound?
**A.** Its GI50 is 15.4 µM (inactive).

**Q.** What does the source list for COc1ccc2c(C(=O)O)cc3ccccc3c2c1OC?
**A.** GI50 (DLD-1): 30.9 µM (inactive); GI50 (DMS-114): 17.7 µM (inactive); GI50 (M19-MEL): 21.3 µM (inactive); GI50 (SNB-78): 16.9 µM (inactive); GI50 (KM-20L2): 22.8 µM (inactive); GI50 (HOP-18): 15.5 µM (inactive); GI50 (LXFL 529): 17.1 µM (inactive)

**Q.** CC1NC(=O)[C@H](C)N(C)C(=O)[C@@H]2CCCN2C(=O)[C@@H](NC(=O)C(Cc2ccccc2)NC(=O)/C=C/C=C/C=C/C=C/C=C/C(=O)NC2=C(O)CCC2=O)COC(=O)[C@@H]2CCCN2C1=O (some centres undefined) (X28-[ξF]SP[NMeA][ξA]P; ester 2-C) was tested. Which GI50 (MDA-N) did it give?
**A.** The GI50 was > 100 µM (inactive).

**Q.** For Nc1nc(O)c2ncn(C3C=CC(CO)C3)c2n1 (centres undefined), which GI50 (MDA-N) is on record?
**A.** The GI50 was > 100 µM (inactive).

**Q.** For N#Cc1ccc(NC(=O)C(CC(=O)OCc2ccccc2)NC(=O)OCc2ccccc2)cc1 (centres undefined), which GI50 (MDA-N) is on record?
**A.** The GI50 was > 10 µM (inactive).

**Q.** Which results are given for CCCN(CCC)c1c([N+](=O)[O-])cc(C(N)=O)cc1[N+](=O)[O-]?
**A.** GI50 (DLD-1): > 100 µM (inactive); GI50 (DMS-114): 71.9 µM (inactive); GI50 (M19-MEL): 48.5 µM (inactive); GI50 (LXFL 529): > 100 µM (inactive)

**Q.** With COc1ccccc1/N=C1\SCCN1C(=S)Nc1ccc(S(=O)(=O)/N=C/N(C)C)cc1 as the compound, how does the GI50 (MDA-N) read?
**A.** Its GI50 is 26.5 µM (inactive).

**Q.** Which GI50 (MDA-N) does the source give for Cc1c(-c2ccccc2)cc(O)c2nc3ccccc3n12 here?
**A.** Its GI50 is 46.8 µM (inactive).

**Q.** With O=C(CC12C3C4C1C1C2C3C41CC(=O)NO)NO (centres undefined) as the compound, how does the GI50 (DLD-1) read?
**A.** The GI50 was 48.1 µM (inactive).

**Q.** And the GI50 (DMS-114)?
**A.** Its GI50 is 24.2 µM (inactive).

**Q.** What about the GI50 (SNB-78) of the same compound?
**A.** Its GI50 is 44.3 µM (inactive).

**Q.** What about the GI50 (RXF 631) of the same compound?
**A.** Its GI50 is 27.4 µM (inactive).

**Q.** And the GI50 (KM-20L2)?
**A.** The GI50 was 38.2 µM (inactive).

**Q.** And the GI50 (LXFL 529)?
**A.** Its GI50 is 47.6 µM (inactive).

**Q.** Which GI50 (DLD-1) does the source give for CC(C)(C)C(=O)Nc1ccccc1Br here?
**A.** The GI50 was > 100 µM (inactive).

**Q.** What about the GI50 (DMS-114) of the same compound?
**A.** Its GI50 is > 100 µM (inactive).

**Q.** And the GI50 (M19-MEL)?
**A.** Its GI50 is > 100 µM (inactive).

**Q.** What about the GI50 (KM-20L2) of the same compound?
**A.** Its GI50 is > 100 µM (inactive).

**Q.** And the GI50 (LXFL 529)?
**A.** Its GI50 is > 100 µM (inactive).

**Q.** How did the GI50 (MDA-N) turn out when Nc1ccc2c(c1)C1Oc3ccccc3CC1CO2 (centres undefined) was run?
**A.** The GI50 was > 100 µM (inactive).

**Q.** With Cc1nc2ccccc2[nH]/c1=N/Nc1ccccc1 as the compound, how does the GI50 (MDA-N) read?
**A.** Its GI50 is 19.5 µM (inactive).

**Q.** How did the GI50 (MDA-N) turn out when CC(C)Oc1c(-c2ccc(F)cc2)c(O)c2c3c1oc(=O)n3C=CC2C (centres undefined) was run?
**A.** Its GI50 is 12.4 µM (inactive).

**Q.** For O=C1/C(=C/c2cccc(Br)c2)CCc2ccccc21, which GI50 (MDA-N) is on record?
**A.** Its GI50 is 10.8 µM (inactive).

**Q.** Which GI50 (MDA-N) does the source give for CC1CCc2c(c(CC3CC(=O)NC(=O)C3)nn2-c2ccccc2)C1 (centres undefined) here?
**A.** Its GI50 is > 100 µM (inactive).

**Q.** Which GI50 (MDA-N) does the source give for COc1cc(/C=C/C=C2\CC/C(=C\C=C\c3ccc(O)c(OC)c3)C2=O)ccc1O here?
**A.** Its GI50 is > 100 µM (inactive).

**Q.** What does the source list for CC12CCC(=O)N1c1ccc([N+](=O)[O-])cc1N2 (centres undefined)?
**A.** GI50 (DLD-1): > 100 µM (inactive); GI50 (DMS-114): > 100 µM (inactive); GI50 (M19-MEL): > 100 µM (inactive); GI50 (SNB-78): > 100 µM (inactive); GI50 (KM-20L2): > 100 µM (inactive); GI50 (HOP-18): > 100 µM (inactive); GI50 (LXFL 529): > 100 µM (inactive)

**Q.** Which results are given for CSc1ccc2c(cc1=O)C(NC(=O)c1ccc(OC(C)=O)cc1)CCc1cc(O)c(O)c(O)c1-2 (centres undefined)?
**A.** GI50 (DLD-1): 17.8 µM (inactive); GI50 (DMS-114): 19.8 µM (inactive); GI50 (M19-MEL): 12.8 µM (inactive); GI50 (SNB-78): 30.8 µM (inactive); GI50 (KM-20L2): 37.5 µM (inactive); GI50 (LXFL 529): 17.3 µM (inactive)

**Q.** With CCOc1ccc(NC(=O)C(=O)C(/C(=N/N)C(=O)OC)c2nc3ccc([N+](=O)[O-])cc3nc2O)cc1 (centres undefined) as the compound, how does the GI50 (MDA-N) read?
**A.** Its GI50 is > 100 µM (inactive).

**Q.** For NS(=O)(=O)c1ccc(NNC(=O)c2cccc3c(=O)c4ccccc4[nH]c23)cc1, which GI50 (MDA-N) is on record?
**A.** The GI50 was > 100 µM (inactive).

**Q.** For O=C(CCN(CCO)CCO)Nc1ccc2c(c1)C(=O)c1ccc(NC(=O)CCN(CCO)CCO)cc1C2=O, which GI50 (DMS-114) is on record?
**A.** The GI50 was 5.11 µM (inactive).

**Q.** And the GI50 (M19-MEL)?
**A.** The GI50 was 13.7 µM (inactive).

**Q.** What about the GI50 (SNB-78) of the same compound?
**A.** Its GI50 is 6.62 µM (inactive).

**Q.** And the GI50 (KM-20L2)?
**A.** Its GI50 is 48.4 µM (inactive).

**Q.** And the GI50 (HOP-18)?
**A.** Its GI50 is 27 µM (inactive).

**Q.** What about the GI50 (LXFL 529) of the same compound?
**A.** Its GI50 is 2.05 µM (inactive).

**Q.** How did the GI50 (MDA-N) turn out when C=CCN1C(=O)/C(=C/c2ccco2)N=C1SC/C=C/C was run?
**A.** Its GI50 is 21.7 µM (inactive).

**Q.** Which GI50 (MDA-N) does the source give for CC[C@H]1CN(C)[C@H]2Cc3c([nH]c4ccccc34)C(=O)C[C@H]1C2C(=O)OC (some centres undefined) here?
**A.** The GI50 was > 100 µM (inactive).

**Q.** For O=[N+]([O-])C(=C(c1ccccc1)c1ccccc1)[N+](=O)[O-], which GI50 (DLD-1) is on record?
**A.** The GI50 was 3.46 µM (inactive).

**Q.** What about the GI50 (DMS-114) of the same compound?
**A.** Its GI50 is 18.7 µM (inactive).

**Q.** What about the GI50 (SNB-78) of the same compound?
**A.** The GI50 was > 10 µM (inactive).

**Q.** And the GI50 (KM-20L2)?
**A.** The GI50 was 17.2 µM (inactive).

**Q.** What about the GI50 (LXFL 529) of the same compound?
**A.** Its GI50 is 15.6 µM (inactive).

**Q.** For N#CC(C#N)=c1c2nsnc2c(=C(C#N)C#N)c2nsnc12, which GI50 (DLD-1) is on record?
**A.** The GI50 was 2.03 µM (inactive).

**Q.** And the GI50 (DMS-114)?
**A.** Its GI50 is 1.91 µM (inactive).

**Q.** What about the GI50 (SNB-78) of the same compound?
**A.** The GI50 was 1.74 µM (inactive).

**Q.** And the GI50 (KM-20L2)?
**A.** Its GI50 is 1.8 µM (inactive).

**Q.** And the GI50 (HOP-18)?
**A.** Its GI50 is 2.66 µM (inactive).

**Q.** And the GI50 (LXFL 529)?
**A.** Its GI50 is 1.63 µM (inactive).

**Q.** NP(=O)(Oc1c2occc2cc2ccc(=O)oc12)N(CCCl)CCCl (centres undefined) was tested. Which GI50 (MDA-N) did it give?
**A.** Its GI50 is > 100 µM (inactive).

**Q.** Cc1ccc(C(=O)N/N=C(\N=N\c2ccccc2C(=O)O)c2ccc(N(C)C)cc2)cc1 was tested. Which GI50 (MDA-N) did it give?
**A.** Its GI50 is 19 µM (inactive).

**Q.** With c1c[nH]c(C23C4C5C6C4C2C6C53)n1 (centres undefined) as the compound, how does the GI50 (MDA-N) read?
**A.** The GI50 was > 100 µM (inactive).

**Q.** For CCCNc1[nH]c(C(=O)c2ccccc2)c(N)c1C(=S)Nc1ccccc1, which GI50 (MDA-N) is on record?
**A.** The GI50 was > 100 µM (inactive).

**Q.** How did the GI50 (MDA-N) turn out when COC1=C(OC)C(=O)C(Cc2c(Cl)nc3n2CCS3)=C(C)C1=O was run?
**A.** Its GI50 is 13.9 µM (inactive).

**Q.** Which GI50 (MDA-N) does the source give for COc1ccc2oc(=N)c(C(=O)NCc3ccccc3)cc2c1 here?
**A.** The GI50 was 19.8 µM (inactive).

**Q.** Nc1ccc2[nH]c(C(=O)N3CC(CCl)c4c3cc(N)c3ccccc43)cc2c1 (centres undefined) was tested. Which GI50 (MDA-N) did it give?
**A.** The GI50 was < 0.01 µM (active).

**Q.** How did the GI50 (MDA-N) turn out when C=CC(c1ccccc1)[C@@]1(OC(C)=O)C(=O)C(=O)OC1C1COC(C)(C)O1 (some centres undefined) was run?
**A.** The GI50 was 10.4 µM (inactive).

**Q.** How did the GI50 (MDA-N) turn out when O=c1[nH]nc(-c2ccccc2)n1-c1ccncc1 was run?
**A.** The GI50 was > 100 µM (inactive).
